The results in this text go back to the supplement of paper PMC10307832.

The structures appear in SMILES notation.

The first assay concerns LCLC-103H. Description: relative viability (nuclei count vs DMSO), 5 days (fraction); higher = more cells survive. The settings on record: first compound 2.53 µM. In short, it runs like this: (§1)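 Values are medians from duplicate plates. Each reflects relative viability, defined as the nuclei count of treated wells over that of vehicle wells. Lung cancer cell lines in 1536-well plates were pin-tool dosed one day after seeding with one drug alone or with a fixed anchor-drug dose plus five library-drug doses (not always all listed) in √10 steps, then fixed, stained and imaged at 4× after 5 days.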
`Nc1cccc2c1CN(C1CCC(=O)NC1=O)C2=O` (stereo not given) [Lenalidomide] + N=C(N)NC(=N)NCCc1ccccc1 [Phenformin] (partner 250 µM) came in with a relative viability of 0.352.
`Nc1cccc2c1CN(C1CCC(=O)NC1=O)C2=O` (stereo not given) [Lenalidomide] + Cc1cc(Nc2cc(N3CCN(C)CC3)nc(Sc3ccc(NC(=O)C4CC4)cc3)n2)n[nH]1 [Tozasertib] (partner 0.1 µM) gave a relative viability of 0.644.
Same read-out and setting: for `Nc1cccc2c1CN(C1CCC(=O)NC1=O)C2=O` (stereo not given) [Lenalidomide] + CC(=O)c1c(C)c2cnc(Nc3ccc(N4CCNCC4)cn3)nc2n(C2CCCC2)c1=O [Palbociclib] (partner 0.5 µM) the value was 0.464; for `Nc1cccc2c1CN(C1CCC(=O)NC1=O)C2=O` (stereo not given) [Lenalidomide] + O=C(CCCCCCC(=O)Nc1ccccc1)NO [Vorinostat] (partner 1 µM), 0.818; for `Nc1cccc2c1CN(C1CCC(=O)NC1=O)C2=O` (stereo not given) [Lenalidomide] + COc1cccc2cc(-c3nc([C@H]4CC[C@H](C(=O)O)CC4)n4ncnc(N)c34)[nH]c12 [OSI-027] (partner 0.5 µM), 0.512.

Still in this assay, the particulars now being: first compound 8 µM.
`Nc1cccc2c1CN(C1CCC(=O)NC1=O)C2=O` (stereo not given) [Lenalidomide] + N=C(N)NC(=N)NCCc1ccccc1 [Phenformin] (partner 250 µM) came in with a relative viability of 0.257.
For the compound `Nc1cccc2c1CN(C1CCC(=O)NC1=O)C2=O` (stereo not given) [Lenalidomide] + Cc1cc(Nc2cc(N3CCN(C)CC3)nc(Sc3ccc(NC(=O)C4CC4)cc3)n2)n[nH]1 [Tozasertib] (partner 0.1 µM), the relative viability was found to be 0.566.
On the same count and under the same terms, with `Nc1cccc2c1CN(C1CCC(=O)NC1=O)C2=O` (stereo not given) [Lenalidomide] + CC(=O)c1c(C)c2cnc(Nc3ccc(N4CCNCC4)cn3)nc2n(C2CCCC2)c1=O [Palbociclib] (partner 0.5 µM) the figure was 0.47.
On the same count and under the same terms, with `Nc1cccc2c1CN(C1CCC(=O)NC1=O)C2=O` (stereo not given) [Lenalidomide] + O=C(CCCCCCC(=O)Nc1ccccc1)NO [Vorinostat] (partner 1 µM) the figure was 0.616.
On to `Nc1cccc2c1CN(C1CCC(=O)NC1=O)C2=O` (stereo not given) [Lenalidomide] + COc1cccc2cc(-c3nc([C@H]4CC[C@H](C(=O)O)CC4)n4ncnc(N)c34)[nH]c12 [OSI-027] (partner 0.5 µM), for which the relative viability came to 0.473.

A further assay has as its system LOU-NH91. Described as above. The settings on record: first compound 0.253 µM. In short, it runs like this:
as §1
`Nc1cccc2c1CN(C1CCC(=O)NC1=O)C2=O` (stereo not given) [Lenalidomide] + N=C(N)NC(=N)NCCc1ccccc1 [Phenformin] (partner 250 µM) came in with a relative viability of 0.681.
On the same count and under the same terms, with `Nc1cccc2c1CN(C1CCC(=O)NC1=O)C2=O` (stereo not given) [Lenalidomide] + Cc1cc(Nc2cc(N3CCN(C)CC3)nc(Sc3ccc(NC(=O)C4CC4)cc3)n2)n[nH]1 [Tozasertib] (partner 0.1 µM) the figure was 0.715; with `Nc1cccc2c1CN(C1CCC(=O)NC1=O)C2=O` (stereo not given) [Lenalidomide] + CC(=O)c1c(C)c2cnc(Nc3ccc(N4CCNCC4)cn3)nc2n(C2CCCC2)c1=O [Palbociclib] (partner 0.5 µM), 0.564; with `Nc1cccc2c1CN(C1CCC(=O)NC1=O)C2=O` (stereo not given) [Lenalidomide] + O=C(CCCCCCC(=O)Nc1ccccc1)NO [Vorinostat] (partner 1 µM), 0.928.
As to `Nc1cccc2c1CN(C1CCC(=O)NC1=O)C2=O` (stereo not given) [Lenalidomide] + COc1cccc2cc(-c3nc([C@H]4CC[C@H](C(=O)O)CC4)n4ncnc(N)c34)[nH]c12 [OSI-027] (partner 0.5 µM), the relative viability came out at 0.769.

The assay is the same for the next values; noted with them: first compound 0.8 µM.
Take `Nc1cccc2c1CN(C1CCC(=O)NC1=O)C2=O` (stereo not given) [Lenalidomide] + N=C(N)NC(=N)NCCc1ccccc1 [Phenformin] (partner 250 µM): the relative viability stood at 0.584.
The compound `Nc1cccc2c1CN(C1CCC(=O)NC1=O)C2=O` (stereo not given) [Lenalidomide] + Cc1cc(Nc2cc(N3CCN(C)CC3)nc(Sc3ccc(NC(=O)C4CC4)cc3)n2)n[nH]1 [Tozasertib] (partner 0.1 µM) registered a relative viability of 0.737.
On the same count and under the same terms, with `Nc1cccc2c1CN(C1CCC(=O)NC1=O)C2=O` (stereo not given) [Lenalidomide] + CC(=O)c1c(C)c2cnc(Nc3ccc(N4CCNCC4)cn3)nc2n(C2CCCC2)c1=O [Palbociclib] (partner 0.5 µM) the figure was 0.515; with `Nc1cccc2c1CN(C1CCC(=O)NC1=O)C2=O` (stereo not given) [Lenalidomide] + O=C(CCCCCCC(=O)Nc1ccccc1)NO [Vorinostat] (partner 1 µM), 0.753.
The compound `Nc1cccc2c1CN(C1CCC(=O)NC1=O)C2=O` (stereo not given) [Lenalidomide] + COc1cccc2cc(-c3nc([C@H]4CC[C@H](C(=O)O)CC4)n4ncnc(N)c34)[nH]c12 [OSI-027] (partner 0.5 µM) displayed a relative viability of 0.699.

The same assay, now with this note: first compound 2.53 µM.
The compound `Nc1cccc2c1CN(C1CCC(=O)NC1=O)C2=O` (stereo not given) [Lenalidomide] + N=C(N)NC(=N)NCCc1ccccc1 [Phenformin] (partner 250 µM) displayed a relative viability of 0.75.
Same read-out and setting: with `Nc1cccc2c1CN(C1CCC(=O)NC1=O)C2=O` (stereo not given) [Lenalidomide] + Cc1cc(Nc2cc(N3CCN(C)CC3)nc(Sc3ccc(NC(=O)C4CC4)cc3)n2)n[nH]1 [Tozasertib] (partner 0.1 µM) the figure was 0.715; with `Nc1cccc2c1CN(C1CCC(=O)NC1=O)C2=O` (stereo not given) [Lenalidomide] + CC(=O)c1c(C)c2cnc(Nc3ccc(N4CCNCC4)cn3)nc2n(C2CCCC2)c1=O [Palbociclib] (partner 0.5 µM), 0.487; with `Nc1cccc2c1CN(C1CCC(=O)NC1=O)C2=O` (stereo not given) [Lenalidomide] + O=C(CCCCCCC(=O)Nc1ccccc1)NO [Vorinostat] (partner 1 µM), 0.98.
On the same count and under the same terms, for `Nc1cccc2c1CN(C1CCC(=O)NC1=O)C2=O` (stereo not given) [Lenalidomide] + COc1cccc2cc(-c3nc([C@H]4CC[C@H](C(=O)O)CC4)n4ncnc(N)c34)[nH]c12 [OSI-027] (partner 0.5 µM) the value was 0.703.

Still in this assay, the particulars now being: first compound 8 µM.
The compound `Nc1cccc2c1CN(C1CCC(=O)NC1=O)C2=O` (stereo not given) [Lenalidomide] + N=C(N)NC(=N)NCCc1ccccc1 [Phenformin] (partner 250 µM) gave a relative viability of 0.491.
`Nc1cccc2c1CN(C1CCC(=O)NC1=O)C2=O` (stereo not given) [Lenalidomide] + Cc1cc(Nc2cc(N3CCN(C)CC3)nc(Sc3ccc(NC(=O)C4CC4)cc3)n2)n[nH]1 [Tozasertib] (partner 0.1 µM) had a relative viability of 0.73.
Same read-out and setting: for `Nc1cccc2c1CN(C1CCC(=O)NC1=O)C2=O` (stereo not given) [Lenalidomide] + CC(=O)c1c(C)c2cnc(Nc3ccc(N4CCNCC4)cn3)nc2n(C2CCCC2)c1=O [Palbociclib] (partner 0.5 µM) the value was 0.429; for `Nc1cccc2c1CN(C1CCC(=O)NC1=O)C2=O` (stereo not given) [Lenalidomide] + O=C(CCCCCCC(=O)Nc1ccccc1)NO [Vorinostat] (partner 1 µM), 0.817.
On the same count and under the same terms, for `Nc1cccc2c1CN(C1CCC(=O)NC1=O)C2=O` (stereo not given) [Lenalidomide] + COc1cccc2cc(-c3nc([C@H]4CC[C@H](C(=O)O)CC4)n4ncnc(N)c34)[nH]c12 [OSI-027] (partner 0.5 µM) the value was 0.664.
